Reference: US20240209401A1, “CULTURE MEDIUM COMPOSITION FOR INCREASING GROWTH AND METABOLIC RATE OF ACETOGENIC STRAIN AND METHOD FOR CULTURING ACETOGENIC STRAIN USING THE SAME” (GWANGJU INSTITUTE OF SCIENCE AND TECHNOLOGY, priority 2022, published 2024)

What was measured:
acetogen strain [1] = assay: Steady-state culture (dilution rate of 0.018/h) with CO and CO2 gas substrates; format: cell-based; settings: methanol added
From the text: The method for culturing an acetogen strain may include a medium injection step of injecting the acetogen strain culture medium composition containing the C1 compound into a bioreactor; a strain inoculation step of inoculating the acetogenic strain into the culture medium composition; and a bioreactor driving step of culturing the acetogenic strain by driving the bioreactor. […]

acetogen strain [2] = assay: Growth inhibition by high methanol concentration in the medium; format: cell-based; settings: with respect to the total medium composition
From the text: In this case, the methanol may be contained in a concentration of more than 0 M and 1.5 M or less with respect to the total medium composition.
If the concentration of methanol exceeds 1.5 M, it is not preferable because growth inhibition occurs due to the addition of a high concentration of organic solvent.

## CO [methanol]
Acetogen strain [1]
  cell concentration in the steady state: 17.4 g/L
  cell conversion yield: 0.008 g DCW/mmol MeOH
Acetogen strain [2]
  concentration of methanol at which growth inhibition occurs: exceeds 1.5 M
